From US4353923A, “Pharmaceutical composition containing a benzofurancarboxamide derivative as the active ingredient” (Kyowa Hakko Kogyo Co., Ltd., priority 1980, dated 1982) come the findings set out here.

Data set [1] deals with male dd mice. Kind of data set: Anticonvulsant activity: maximal electroshock convulsion test. The format is in vivo. The conditions noted are these: Mus musculus, po, 1 h, 60 min after administration, read-out: Maximal electroshock convulsion test, inhibition ratio. The text has this: Anticonvulsant activity was examined according to maximal electroshock convulsion test.
In this experiment, 10 male dd mice weighing 23±1 g were used as one group. Each drug was orally administered to the animals. Sixty minutes after the administration, an electric current (2000 V, 50 mA) was applied to both eyes of the mouse for 0.2 second. Drug activity was judged according to whether tonic extensor seizures were observed or not.
In general terms: The maximal electroshock test induces tonic seizures with an electrical stimulus.

The subject of data set [2] is male dd mice. Kind of data set: Muscle relaxant activity: rotating rod test. The class given is in vivo. The settings on record: 150 mg/kg p.o., 5 mice per group. Here is the method: (§1) In this example, 5 male dd mice weighing 20±1 g were used as one group. Prior to the experiments, mice were placed on the rod having a diameter of 3 cm and rotating at 5 r.p.m. in the reverse direction of the rotation. […] The drugs were orally administered and the muscle relaxant activity with the passage of time was examined by the following tests.
Rotating rod test: The same mouse was placed on the rotating rod to observe whether it falls or not within 2 minutes.
(§2) In each test, the drug was considered to have a muscle relaxant activity when the mouse fell.

Data set [3] concerns male dd mice. Kind of data set: Muscle relaxant activity: slant test. The class given is in vivo. The settings on record: 150 mg/kg p.o., 5 mice per group. Here is the method:
as §1
Slant test: Each mouse was placed on a wire net inclined at an angle of 45° to observe whether it falls or not.
as §2

Data set [4] is described as follows: in vivo. The conditions noted are these: mouse, po, mice, deaths counted for 7 days. Here is the method:
In this example, 3-7 male dd mice weighing 20±1 g were used as one group. Each drug was suspended in a 0.3% CMC solution and orally administered. After the administration, number of dead animals was counted for 7 days to determine LD50 value. As the reference drugs, mepirizole and benzydamine hydrochloride were dissolved in water and orally administered. The drugs and the reference drugs were also administered in the same manner as above in Examples 2-5.

Data set [5] relates to male dd mice. Kind of data set: Analgesic activity: acetic acid writhing. The format is in vivo. The settings on record: Mus musculus, po, 1 h, acetic acid i.p. after 60 min, read-out: Inhibition ratio (writhes, vs control). Here is the method:
In this experiment, 10 male dd mice weighing 20±1 g were used as one group for examination of analgesic activity. Sixty minutes after oral administration of each drug to each animal, 0.2 ml of a 0.7% acetic acid solution was intraperitoneally administered to the animal. Starting 10 minutes after the administration of acetic acid, the number of writhes occurred in 10 minutes was counted. Average number of writhes and inhibition ratio in comparison with control group were calculated.

The subject of data set [6] is male dd mice. Kind of data set: Muscle relaxant activity: traction test. The format is in vivo. The conditions noted are these: 150 mg/kg p.o., 5 mice per group.
Source text: as §1
Traction test: Forefeet of the same mouse were placed on a wire to observe whether it falls or not.
as §2

The subject of data set [7] is male Wistar rats. The data set can be described thus: Anti-inflammatory activity: carrageenin edema method. The settings on record: Rattus norvegicus, po, 3 hours after carrageenin, read-out: Inhibition ratio (paw swelling, vs control). The class given is in vivo. Here is the method:
In this experiment, 5 male Wistar rats weighing 140±10 g were used as one group. Sixty minutes after oral administration of each drug to each animal, 0.1 ml of a 1% carrageenin solution as a phlogistic agent was injected into the plantar surface of the right hind paw of the animal to induce inflammation. The volume of the paw was measured before and 3 hours after the injection of the phlogistic agent. Swelling ratio and inhibition ratio in comparison with control group were calculated.
Background: The carrageenan paw model is a standard test of acute inflammation.

In general, LD50 refers to the dose at which mortality reaches 50%. Read a low LD50 as a more toxic substance. As for `COc1cc(C)nc(-n2nc(C)cc2OC)n1` [Mepirizole, mepirizole, reference compound], the responders at 100 mg/kg in data set [1] (100 mg/kg p.o.) came out at 20%. Further, the responders at 150 mg/kg in data set [1] (150 mg/kg p.o.) worked out at 85.7%. Further, in data set [1] (300 mg/kg p.o.), the responders at 300 mg/kg is 100%. In addition, the entries for the “Number of dropped mice, rotating rod test” value in data set [2] (1 hr), in data set [2] (2 hr) and in data set [2] (3 hr) were 5 mice, 1 mice and 0 mice, respectively. Further, the “Number of dropped mice, slant test” value amounted to 3 mice in data set [3] (1 hr), 1 mice in data set [3] (2 hr) and 0 mice in data set [3] (3 hr). Further, the LD50 at 168 h in data set [4] was in the range of 500 to 1000 mg/kg. Moreover, the inhibition in vivo at 50 mg/kg in data set [5] (50 mg/kg p.o.) was determined as 30.4%. The inhibition in vivo at 200 mg/kg in data set [5] (200 mg/kg p.o.) amounted to 84.7%; in data set [7] (200 mg/kg p.o.), 47%. The “Number of dropped mice, traction test” value in data set [6] (1 hr) is 2 mice; in data set [6] (2 hr), 0 mice; in data set [6] (3 hr), 0 mice. Moreover, in data set [7] (100 mg/kg p.o.), the inhibition in vivo at 100 mg/kg came to 29.2%.
